# Measurements: patent publication US5994365A, “Substituted diazaanthracene compounds having pharmaceutical utility” (Diazans Limited, priority 1998, dated 1999)
# Legend:
# Experiment in all cases: Broth microdilution (NCCLS guidelines), MIC
# β strep grp A = format: cell-based; details: Table A
# Experimental: (§1) The dimer product of Example 15 was obtained in powder form. A stock solution of 1280 mg/L of the dimer in dimethylsulfoxide (DMSO) was prepared and stored at room temperature in a foil-wrapped screw-capped tube (10 ml). Subsequent dilutions were prepared using cation-adjusted Mueller-Hinton broth (50 mg/L Mg). […] It was resuspended upon mixing each time an aliquot was taken from the solution.
# (§2) Approximately 100 varied bacterial isolates were initially collected for screening, along with 9 ATCC organisms. Forty additional strains of Staphylococcus species were subsequently screened. All isolates were identified according to generally accepted lab protocol.
# (§3) Broth microdilution was performed according to NCCLS guidelines. Microdilution panels were prepared using doubling dilutions of the dimer in ~250 μl plastic, 96-well trays. Inoculum suspension equal to a 0.5 McFarland standard were further diluted and added to the microdilution trays to achieve a final inoculum of 5×10^5 CFU/ml (5×10^4 CFU/well). Colony counts were performed to confirm the final inoculum, as well as its purity. Each strain was also tested in a growth control well containing only MHB for viability.
# (§4) Microdilution trays were incubated at 35° C. in ambient air or 5% CO2 as appropriate for 16-20 hours. After incubation, the minimal inhibitory concentration (MIC) was defined as the lowest concentration of the dimer with no evidence of growth. Since 10 or more strains of most organisms were tested; a range of MICs was determined for each organism, as well as the concentration of the dimer that inhibited 50% of the strains (MIC50) and the concentration of the dimer that inhibited 90% of the strains (MIC90).
# (§5) **5% lysed horse blood in MHB (cation supplemented)
# Strep pneumoniae = format: cell-based; details: Table A
# Experimental: as §1, §2, §3, §4, §5
# [1] = test system: Coagulase negative Staph (Staneg); format: cell-based, Coagulase negative staphylococci; details: for MIC50 / MIC90 / Range of MICs: 10 strains
# Experimental: as §1, §2, §3, §4
# ATCC EC 25922 = format: cell-based, Escherichia coli; details: Table A
# Experimental: as §1, §2, §3
# Microdilution trays were incubated at 35° C. in ambient air or 5% CO2 as appropriate for 16-20 hours. […]
# [2] = 10 strains, 5% lysed horse blood in MHB
substance,measurement,setting,value
"10,10'-bis(3,6-dimethyl-5,10-dihydro-1,8-diazaanthracen-5-one) and 5,5'-bis(3,6-dimethyl-5,10-dihydro-1,8-diazaanthracen-10-one) [Example 15]",MIC50,β strep grp A; [2],32 µg/mL
same,MIC90,β strep grp A; [2],64 µg/mL
same,Range of MICs,β strep grp A; [2],32 to 64 mg/L
same,MIC,"β strep grp A; ATCC STRA 19615, 5% lysed horse blood in MHB",32 µg/mL
same,MIC50,Strep pneumoniae; [2],8 µg/mL
same,MIC90,Strep pneumoniae; [2],16 µg/mL
same,Range of MICs,Strep pneumoniae; [2],8 to 32 mg/L
same,MIC,"Strep pneumoniae; ATCC STRPNE 49619, 5% lysed horse blood in MHB",2.0 µg/mL
same,MIC50,[1]; Table A,0.125 µg/mL
same,MIC90,[1]; Table A,0.5 µg/mL
same,Range of MICs,[1]; Table A,.0625 to 1.0 mg/L
same,MIC50,"[1]; Table C, solution 14 days old",1 µg/mL
same,MIC90,"[1]; Table C, solution 14 days old",2 µg/mL
same,MIC,"[1]; Table D, Staneg 1",2 µg/mL
same,MIC,"[1]; Table D, Staneg 2",0.25 µg/mL
same,MIC,"[1]; Table D, Staneg 3",2 µg/mL
same,MIC,"[1]; Table D, Staneg 4",> 16 µg/mL
same,MIC,"[1]; Table D, Staneg 5",1 µg/mL
same,MIC,"[1]; Table D, Staneg 6",1 µg/mL
same,MIC,"[1]; Table D, Staneg 7",1 µg/mL
same,MIC,"[1]; Table D, Staneg 8",1 µg/mL
same,MIC50,"[1]; Table E, fresh solution",0.25 µg/mL
same,MIC90,"[1]; Table E, fresh solution",0.5 µg/mL
same,Range of MICs,"[1]; Table E, fresh solution, in µg/mL",0.0625-4
same,MIC,"[1]; Table F, Staneg 1",0.0625 µg/mL
same,MIC,"[1]; Table F, Staneg 4",4 µg/mL
same,MIC,"[1]; Table F, Staneg 7",0.25 µg/mL
same,MIC50,[1]; Table G,0.25 µg/mL
same,MIC90,[1]; Table G,.5 µg/mL
same,Range of MICs,[1]; Table G,0.0625 to 4 mg/L
same,MIC,ATCC EC 25922,> 64 µg/mL
